Data set [1] deals with stable HCV 1b RLuc replicon cells (dicistronic genotype 1b Con1 replicon). Briefly: Renilla luciferase HCV replicon reporter assay, genotype 1b. As to conditions: Hepatitis C virus, 72 h, stable 1b Con1 RLuc replicon cells, 72 hours; read-out: 1b. The class given is cell-based. In short, it runs like this: (§1)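 Cells carrying the stable or transiently transfected (Huh-Lunet) dicistronic RLuc replicons received 3-fold serial compound dilutions from 10 mM DMSO stocks. After 72 h, cells were lysed and Renilla luciferase read. DMSO served as the no-inhibition control and ITMN-191 above 100×EC50 as the positive control; EC50 by non-linear regression.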

Data set [2] concerns stable HCV 1a RLuc replicon cells (dicistronic genotype 1a H77 replicon). Briefly: Renilla luciferase HCV replicon reporter assay, genotype 1a. The class given is cell-based. As to conditions: Hepatitis C virus, 72 h, stable 1a H77 RLuc replicon cells. In short, it runs like this:
as §1

For data set [3], the system named is Q30R in genotype 1a NS5A (1a Pi-Rluc replicon, Huh-7-derived cured-51 cells). Briefly: Replicon assay against resistance mutant 1a Q30R. The class given is cell-based, HCV. Conditions: Hepatitis C virus. In short, it runs like this: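 Q30R introduced by site-directed mutagenesis into the 1a Pi-RLuc replicon; replicon RNA transiently transfected into cured-51 cells. Cells treated with 3-fold serially diluted compound for 72 h, then lysed and Renilla luciferase measured; EC50 by non-linear regression.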

The subject of data set [4] is stable HCV 2a JFH-1 Rluc replicon cells (L31 present in NS5A). Briefly: Renilla luciferase HCV replicon reporter assay, genotype 2a JFH-1. The class given is cell-based. Conditions: Hepatitis C virus. In short, it runs like this:
as §1

The test system of data set [5] is NS5A chimeric genotype 2a JFH-1 replicon with genotype 2b MD2b-1 strain NS5A gene (M31 present). Briefly: Replicon assay, genotype 2b NS5A chimera. The class given is cell-based, HCV. Conditions: Hepatitis C virus. In a few lines: as §1
Data set [6] has as its system NS5A chimeric genotype 1b Con1 replicon with genotype 3a S52 strain NS5A gene. Briefly: Replicon assay, genotype 3a NS5A chimera. The class given is cell-based, HCV. As to conditions: Hepatitis C virus.
Data set [7] can be described thus: IV and PO single dose pharmacokinetic studies in SD rats. The class given is in vivo, male Sprague-Dawley (SD) rats. As to conditions: Sprague-Dawley, rat, plasma, male SD rats, PO 2 mg/kg vs IV infusion 1 mg/kg, read-out: Rat % F. The protocol:
IV and PO Single Dose Pharmacokinetic Studies in SD Rats:
The pharmacokinetics of selected compounds was characterized in male Sprague-Dawley (SD) rats (250-300g). In this study, two groups of naïve purebred SD rats (N=3 per group, fasted over night) received the selected compound either as an intravenous (IV) infusion (1 mg/kg over 30 minutes) via the jugular vein or by oral gavage (2 mg/kg). The intravenous (IV) dosing vehicle was 5% ethanol, 35% polyethylene glycol 400 (PEG 400) and 60% water pH 2.0. The oral dosing vehicle was 5% ethanol, 55% PEG 400 and 40% citrate buffer pH 2.2.
Serial blood samples (approximately 0.3 mL each) were collected from jugular vein or other suitable vein at specified time points. For the IV infusion group, the blood samples were collected predose and at 0.25, 0.48, 0.58, 0.75, 1.5, 3, 6, 8, 12 and 24 hours after the start of infusion. For the oral group, the blood samples were collected predose and at 0.25, 0.50, 1, 2, 4, 6, 8, 12 and 24 hours after dosing. The blood samples were collected into VacutainerγM tubes containing EDTA-K3 as the anti-coagulant and were centrifuged at approximately 4° C. to obtain plasma. The plasma samples were stored at −20° C. until analysis by LC/MS/MS.
A bioanalytical method utilizing high performance liquid chromatography coupled to tandem mass spectrometry (LC/MS/MS) was developed for analysis of the selected compound in rat plasma. Detection was performed using selected reaction monitoring (SRM); Ions representing the precursor (M+H)^+ species was selected in quadrupole 1 (Q1) and collided with argon gas in the collision cell (Q2) to generate specific product ion, which was subsequently monitored by quadrupole 3 (Q3). Standard curve and quality control samples were prepared in male rat plasma and processed in the same way as the test samples to generate quantitative data.
Pharmacokinetic parameters were generated using non-compartmental pharmacokinetic analysis (Phoenix WinNonlin, version 6.3). Values below the lower limit of quantification (LLOQ) were assigned a value of zero if predose and treated as missing thereafter. Area under the curve (AUC) was calculated using the linear trapezoidal rule. The oral bioavailability (% F) was determined by comparison of the area under the curve (AUC) of the compound and/or a metabolite generated in plasma following oral administration to that generated following intravenous administration.

The test system of data set [8] is NS5A chimeric genotype 1b Con1 replicon with genotype 4a ED43 strain NS5A gene. Briefly: Replicon assay, genotype 4a NS5A chimera. The class given is cell-based, HCV. As to conditions: Hepatitis C virus.
Data set [9] deals with NS5A chimeric genotype 2a JFH-1 replicon with genotype 2a J6 strain NS5A gene (M31 present). Briefly: Replicon assay, genotype 2a J6 NS5A chimera. Conditions: Hepatitis C virus. The class given is cell-based, HCV. In short, it runs like this: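 72 h compound exposure (3-fold dilutions from 10 mM DMSO stocks) of replicon cells: stable dicistronic RLuc 1a H77, 1b Con1, 2a JFH-1 (NS5A L31); J6-NS5A chimera in JFH-1 (M31), transient in Huh-Lunet or stable. Renilla luciferase read-out, non-linear regression → EC50. DMSO negative control.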

Setting [10] is: read-out: 2a JFH (nM), genotype 2a JFH-1 replicon (L31 in NS5A), stable cells.
The mark [11] stands for this setting: read-out: 2a JFH, stable 2a JFH-1 Rluc replicon cells, L31 in NS5A, activity range.
The mark [12] stands for this setting: 2BS, read-out: 2b (s), stably replicating replicon cells (s), activity range.
The mark [13] stands for this setting: read-out: 2b (s) (nM), genotype 2b MD2b-1 NS5A chimeric replicon (M31), stably replicating replicon cells (s).
The mark [14] stands for this setting: read-out: 3a (s) (nM), genotype 3a NS5A chimeric replicon, stable replicon cells (s).
Setting [15] is: read-out: 3a (s), (s), activity range.
Setting [16] is: read-out: 4a (s) (nM), genotype 4a NS5A chimeric replicon, stable replicon cells (s).
Where [17] appears, read: read-out: 4a (s), (s), activity range.
[18] abbreviates: read-out: 2a J6 (s) (nM), genotype 2a J6 NS5A chimeric replicon (M31), stably replicating replicon cells (s).
The mark [19] stands for this setting: read-out: 2a J6 (s), stably replicating replicon cells (s), activity range.

Like-named read-outs stand apart in the source and are kept apart here.

Consider `CC[C@H]1CC[C@@H](c2ncc(-c3ccc4c(c3)COc3cc5c(ccc6nc([C@@H]7CC[C@H](C)N7C(=O)[C@@H](NC(=O)OC)C7CCOCC7)[nH]c65)cc3-4)[nH]2)N1C(=O)[C@@H](NC(=O)OC)C(C)C` [EN, methyl[(1 S)-2-[(2S,5S)-2-(9-{2-[(2S,5S)-5-ethyl-1-{(2S)-2 [(methoxycarbonyl)amino]-3-methylbutanoyl}pyrrolidin-2-yl]-1H-imidazol-5-yl}-1,11 dihydroisochromeno[4′,3′:6,7]naphtho[1,2-d]imidazol-2-yl)-5-methylpyrrolidin-1-yl]-2-oxo-1(tetrahydro-2H-pyran-4-yl)ethyl]carbamate], for which the EC50 in [1] is 0.034 nM; in data set [2] it was 0.018 nM; in [2] (activity range) it was < 0.1 nM; in data set [3] (read-out: 1a Q30R), < 0.1 nM; in data set [3] (read-out: 1a Q30R (nM)), 0.043 nM; in data set [4] (setting [10]), 0.015 nM. The EC50 is < 0.1 nM in [4] (setting [11]); < 0.1 nM in data set [5] (setting [12]); 0.095 nM in data set [5] (setting [13]); 0.052 nM in data set [5] (read-out: 2b (t) (nM), genotype 2b MD2b-1 NS5A chimeric replicon (M31), transiently transfected (t)); < 0.1 nM in [5] (read-out: 2b (t), transiently transfected (t) into Huh-Lunet cells, activity range); 0.061 nM in [6] (setting [14]). For the same molecule, the EC50 in [6] (setting [15]) is < 0.1 nM. Further, the bioavailability in data set [7] stood at 29.9%.
Consider `COC(=O)N[C@H](C(=O)N1[C@@H](C)CC[C@H]1c1ncc(-c2ccc3c(c2)COc2cc4c(ccc5nc([C@@H]6C[C@H](COC(F)F)CN6C(=O)[C@@H](NC(=O)OC)[C@@H](C)OC)[nH]c54)cc2-3)[nH]1)C(C)C` [FO], for which the EC50 in data set [1] was 0.009 nM; in data set [2], 0.01 nM; in data set [2] (activity range), < 0.1 nM; in data set [3] (read-out: 1a Q30R), 0.1 to 0.999 nM; in [3] (read-out: 1a Q30R (nM)), 0.112 nM; in data set [4] (setting [10]), 0.008 nM. The EC50 in data set [4] (setting [11]) is < 0.1 nM; in data set [5] (setting [12]), 0.1 to 0.999 nM; in data set [5] (setting [13]), 0.164 nM; in [6] (setting [14]), 0.055 nM; in data set [6] (setting [15]) it was < 0.1 nM; in data set [8] (setting [16]), 0.007 nM. Moreover, the EC50 in data set [8] (setting [17]) was < 0.1 nM. For the same molecule, in data set [7], the bioavailability turned out to be 17.2%.
For `CC[C@H](C)[C@H](NC(=O)OC)C(=O)N1[C@@H](C)CC[C@H]1c1nc2ccc3cc4c(cc3c2[nH]1)OCc1cc(-c2cnc([C@@H]3CC[C@H](C)N3C(=O)[C@@H](NC(=O)OC)C3CCOCC3)[nH]2)ccc1-4` [FQ, Methyl [(1 S)-2-[(2S,5S)-2-(5-{2-[(2S,5S)-1-{(2S,3S)-2-[(methoxycarbonyl)amino]-3-methylpentanoyl}-5-methylpyrrolidin-2-yl]-1,11-dihydroisochromeno[4′,3′:6,7]naphtho[1,2-d]imidazol-9-yl}-1H-imidazol-2-yl)-5-methylpyrrolidin-1-yl]-2-oxo-1-(tetrahydro-2H-pyran-4-yl)ethyl]carbamate], the EC50 in [1] is 0.019 nM; in data set [2] it was 0.012 nM; in data set [2] (activity range), < 0.1 nM; in [3] (read-out: 1a Q30R), < 0.1 nM; in data set [3] (read-out: 1a Q30R (nM)), 0.097 nM; in data set [4] (setting [10]), 0.01 nM. Also, the EC50 was < 0.1 nM in data set [4] (setting [11]); < 0.1 nM in data set [5] (setting [12]); 0.066 nM in data set [5] (setting [13]); 0.02 nM in [6] (setting [14]); < 0.1 nM in data set [6] (setting [15]). Also, the bioavailability in data set [7] is 17.7%.
As for `CC[C@H](C)[C@H](NC(=O)OC)C(=O)N1[C@@H](C)CC[C@H]1c1ncc(-c2ccc3c(c2)COc2cc4c(ccc5nc([C@@H]6C[C@@H]7CCC[C@@H]7N6C(=O)[C@@H](NC(=O)OC)C6CCOCC6)[nH]c54)cc2-3)[nH]1` [IP], the EC50 in data set [1] is 0.029 nM; in data set [2], 0.025 nM; in data set [2] (activity range), < 0.1 nM; in data set [4] (setting [10]), 0.033 nM; in data set [4] (setting [11]), < 0.1 nM; in data set [9] (read-out: 2a J6 (t) (nM), genotype 2a J6 NS5A chimeric replicon (M31), transiently transfected (t) into Huh-Lunet cells) it was 0.041 nM. Further, the EC50 was < 0.1 nM in data set [9] (read-out: 2a J6 (t), transiently transfected (t) into Huh-Lunet cells, activity range); < 0.1 nM in data set [5] (setting [12]); 0.074 nM in data set [5] (setting [13]); 0.067 nM in data set [6] (setting [14]); < 0.1 nM in [6] (setting [15]); 0.027 nM in data set [8] (setting [16]). Further, in data set [8] (setting [17]), the EC50 is < 0.1 nM. Also, in [7], the bioavailability is 18.9%.
As for `COC(=O)N[C@H](C(=O)N1[C@H](c2ncc(-c3ccc4c(c3)COc3cc5c(ccc6nc([C@@H]7C[C@@H]8CCC[C@@H]8N7C(=O)[C@@H](NC(=O)OC)C7CCOCC7)[nH]c65)cc3-4)[nH]2)C[C@@H]2CCC[C@@H]21)C(C)C` [IT], the EC50 in [1] was 0.017 nM; in data set [2] it was 0.012 nM; in data set [2] (activity range), < 0.1 nM; in data set [4] (setting [10]), 0.017 nM; in data set [4] (setting [11]), < 0.1 nM; in data set [9] (setting [18]), 0.007 nM. In addition, the EC50 in [9] (setting [19]) is < 0.1 nM; in [5] (setting [12]), < 0.1 nM; in [5] (setting [13]) it was 0.064 nM; in data set [6] (setting [14]) it was 0.032 nM; in data set [6] (setting [15]), < 0.1 nM; in data set [8] (setting [16]), 0.004 nM. The EC50 in [8] (setting [17]) is < 0.1 nM. In addition, the bioavailability in data set [7] came to 16.2%.
Regarding `CC[C@H]1CC[C@@H](c2nc3ccc4cc5c(cc4c3[nH]2)OCc2cc(-c3cnc([C@@H]4C[C@@H]6CCC[C@@H]6N4C(=O)[C@@H](NC(=O)OC)C(C)C)[nH]3)ccc2-5)N1C(=O)[C@@H](NC(=O)OC)C1CCOCC1` [IU], the EC50 in data set [1] is 0.022 nM; in data set [2], 0.016 nM; in [2] (activity range), < 0.1 nM; in [4] (setting [10]), 0.02 nM; in data set [4] (setting [11]) it was < 0.1 nM; in data set [9] (setting [18]) it was 0.028 nM. Also, the EC50 in data set [9] (setting [19]) is < 0.1 nM; in [5] (setting [12]), 0.1 to 0.999 nM; in data set [5] (setting [13]) it was 0.119 nM; in data set [6] (setting [14]), 0.098 nM; in [6] (setting [15]), < 0.1 nM; in data set [8] (setting [16]) it was 0.004 nM. Besides, the EC50 in data set [8] (setting [17]) was < 0.1 nM. The bioavailability in data set [7] came to 26.5%.

Values taken from patent US10800789B2, “Antiviral compounds” (Gilead Pharmasset LLC, priority 2012, dated 2020).
